Data on ten compounds can be found in PubChem BioAssay (NCI).

Values joined by “and” are separate entries in the source; they are usually repeats but may differ in a detail not shown here. Equal entries are not always repeated.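 Interpolation was linear, between the two tested concentrations surrounding the appropriate level; five concentrations were tested over 48 hours in 96-well plates. At the GI50, growth is halved. The concentration for full growth arrest is given as TGI.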

Common to all, as to experiment: inhibition of tumour cell growth, NCI panel, 48 h
The test system of experiment [1] is A498 renal.
The subject of experiment [2] is HCC-2998 colon.
The test system of experiment [3] is HT29 colon.
For experiment [4], the system named is K-562 leukemia.
Experiment [5] deals with NCI/ADR-RES ovarian.
The test system of experiment [6] is OVCAR-5 ovarian.
Experiment [7] deals with PC-3 prostate.
Experiment [8] deals with SW-620 colon.
For experiment [9], the system named is U251 CNS.
The subject of experiment [10] is UACC-257 melanoma.

Take `NNC(=S)N/N=C/c1ccccn1`: the GI50 in experiment [1] was 1820 nM; in [2], 3.12 µM; in experiment [3], 3.54 µM; in experiment [4], 2640 nM; in experiment [5], 2.81 µM; in [6], 3.68 µM. Besides, the GI50 in [7] is 5.62 µM; in [8], 3.89 µM; in experiment [9], 1.99 µM; in experiment [10], 2.7 µM. Besides, the TGI in experiment [1] is 9.01 µM; in experiment [2], over 100 µM; in experiment [3], over 100 µM; in [4], over 100 µM; in experiment [5] it was over 100 µM; in experiment [6] it was over 100 µM. The TGI is over 100 µM in [7], over 100 µM in [8], over 100 µM in [9] and 26.6 µM in experiment [10].
For the compound `Nc1n[nH]c2ccc([C@H]3[C@@H]4C5CCC(C5)[C@@H]4c4c(ccc5[nH]ncc45)N3S(=O)(=O)C3CC3)cc12` (some centres undefined), the GI50 in [1] was 108 nM; in experiment [2], 0.199 µM; in experiment [3] it was 0.171 µM; in experiment [4], 115 nM; in [5], 0.231 µM; in [6], 0.272 µM. In addition, the GI50 in experiment [7] is 0.185 µM; in [8], 0.203 µM; in [9] it was 0.208 µM; in [10] it was 8.04 µM. The TGI in experiment [1] was 0.384 µM; in [2] it was 8.42 µM; in experiment [3], 8.52 µM; in experiment [5], over 50 µM; in experiment [6], 26.1 µM; in experiment [7], 9.85 µM. Further, the values for the TGI in experiment [8], in experiment [9] and in experiment [10] were over 33.7 µM, 17.5 µM and over 47.5 µM, respectively.
Consider `Nc1ncnc2occ(-c3ccc(NC(=O)Nc4cc(C(F)(F)F)ccc4F)cc3)c12`, for which the GI50 in experiment [1] was 1090 nM and 506 nM; in experiment [2], 8.02 µM and 3.98 µM; in experiment [3], 4.42 µM and 2.64 µM; in experiment [4] it was 2180 nM and 972 nM; in experiment [5], 5.44 µM and 3.09 µM; in experiment [6] it was 6.44 µM and 5.95 µM. For the same compound, the GI50 in experiment [7] was 5.92 µM and 5.35 µM; in [8], 7.71 µM and 4.14 µM; in experiment [9], 7.26 µM and 4.26 µM; in experiment [10], 6.19 µM and 4.11 µM. The TGI in [1] was 6.14 µM and 2.69 µM; in experiment [2], 19 µM and 8.87 µM; in [3], 11.6 µM and 7.03 µM; in experiment [4], 19 µM and > 25 µM; in experiment [5], 20.2 µM and 13.3 µM; in experiment [6], 16.2 µM and 13.7 µM. The TGI was 15.8 µM and 16.1 µM in experiment [7]; 23.7 µM and 12.1 µM in experiment [8]; 22.8 µM and 11.2 µM in experiment [9]; 15.6 µM and 8.64 µM in [10].
`O=C(O)c1cc(C(=O)C(=O)c2cc(C(=O)O)c(O)c3ccccc23)c2ccccc2c1O`: the TGI in experiment [1], in [2], in [3], in experiment [4], in experiment [5] and in [6] was over 100 µM throughout. Further, the TGI in experiment [7], in [8], in [9] and in [10] was over 100 µM in each case.
Turning to `COc1ccc(/C=C/C(=O)c2ccc(B(O)O)cc2)cc1O`, the GI50 in [1] was 5470 nM; in experiment [2], 6.46 µM; in experiment [3], 8.22 µM; in experiment [4], 2860 nM; in experiment [5] it was 26.8 µM; in [6] it was 21.5 µM. The GI50 in experiment [7] was 15 µM; in experiment [8], 3.83 µM; in experiment [9], 9.37 µM; in experiment [10], 21.6 µM. Also, the TGI in experiment [1] is 21.8 µM; in [2] it was 18.6 µM; in [3], over 60.4 µM; in experiment [4], over 100 µM; in experiment [5] it was over 100 µM; in [6], 69.5 µM. For the same compound, the TGI turned out to be 50.1 µM in experiment [7], 22 µM in [8], 27 µM in [9] and 59.3 µM in [10].
Turning to `CCOC(=O)Nc1nc(-c2ccccc2)c(C)s1`, the TGI in experiment [1], in experiment [2], in [3], in experiment [4], in experiment [5] and in [6] was over 100 µM throughout. For the same compound, the TGI in experiment [7], in experiment [8], in experiment [9] and in experiment [10] was over 100 µM in each case.
For `Fc1ccc(-c2nn3c(COc4ccccc4Cl)nnc3s2)cc1Oc1ccccc1`, the GI50 was 67600 nM in experiment [1]; 28.6 µM in experiment [2]; 44.9 µM in [3]; over 100000 nM in [4]; 26.6 µM in experiment [5]; 33.2 µM in [6]. The GI50 is 22.6 µM in [7], over 100 µM in experiment [8], 18.4 µM in [9] and over 100 µM in experiment [10]. The TGI in experiment [1] is over 100 µM; in [2], 77.4 µM; in experiment [3], over 100 µM; in experiment [4], over 100 µM; in [5], 76.5 µM; in experiment [6], 92.7 µM. In addition, the TGI was 73.8 µM in experiment [7], over 100 µM in experiment [8], 41.2 µM in experiment [9] and over 100 µM in experiment [10].
For `CC(=O)N[C@@H](Cc1ccc(OP(=O)(O)O)cc1)C(=O)N[C@H]1CCC(=O)N2CCC[C@@H](C(=O)NCc3cccc4ccccc34)N2C1=O`, the GI50 in experiment [1] is over 25000 nM; in experiment [2] it was over 25 µM; in experiment [3], over 25 µM; in [4], over 25000 nM; in experiment [5] it was over 25 µM; in [6], over 25 µM. The GI50 in [7], in experiment [8], in [9] and in experiment [10] was over 25 µM each time. Also, the TGI in experiment [1], in experiment [2], in experiment [3], in experiment [4], in experiment [5] and in experiment [6] was over 25 µM throughout. Also, the TGI in [7], in experiment [8], in [9] and in experiment [10] was over 25 µM throughout.
Regarding `CCN1C2=C(SC(=S)C1=C1SC(C(=O)c3ccccc3)=C(C(=O)c3ccccc3)S1)SC(=Nc1ccccc1)C2=O`, the GI50 was 28100 nM in experiment [1]; over 100 µM in [2]; 16.5 µM in experiment [3]; 4910 nM in experiment [4]; over 73.9 µM in experiment [5]; over 100 µM in experiment [6]. For the same compound, the GI50 in experiment [7] is 17.6 µM; in experiment [8] it was 1.14 µM; in experiment [9], 3.39 µM; in experiment [10] it was over 100 µM. Also, the TGI in experiment [1], in [2], in experiment [3], in experiment [4], in experiment [5] and in experiment [6] was over 100 µM each time. Moreover, the TGI in experiment [7] is over 100 µM; in experiment [8] it was 8.38 µM; in experiment [9], over 60.5 µM; in [10] it was over 100 µM.
In the case of `N#C/C(=C\c1ccc([N+](=O)[O-])cc1)n1nnc2cc(F)c(F)cc21`, the GI50 in experiment [1] was 1900 nM; in experiment [2] it was 1.67 µM; in experiment [3], 1.87 µM; in experiment [4], 3140 nM; in experiment [5] it was 2.96 µM; in [6] it was 1.77 µM. For the same compound, the GI50 in [7] was 1.72 µM; in [8], 1.73 µM; in [9] it was 1.66 µM; in experiment [10], 2.17 µM. In addition, the TGI in experiment [1] is 3.71 µM; in [2], 3.36 µM; in [3], 3.64 µM; in experiment [4] it was over 100 µM; in [5], 11.6 µM; in experiment [6], 3.41 µM. For the same compound, the TGI in experiment [7] is 4 µM; in experiment [8], 3.53 µM; in experiment [9] it was 3.27 µM; in experiment [10], 5.65 µM.
